In article PMC12933331, “A Cryptic Pocket Allosterically Modulates Oligosaccharide Binding to DC-SIGN” (JACS Au, 2026):
Positions count from the first letter of the chain named.

Legend:
Assay in all cases: 1H-15N HSQC NMR titration (CSP fitting)
Assay type in all cases: binding
[1] = target: T1, DC-SIGN CRD F313A (Homo sapiens, UniProt Q9NNX6, F313A)
T1 construct: acids 253-404 of DC-SIGN; His-tag (N); made in house
T1 sequence (Q9NNX6 253-404 F313A): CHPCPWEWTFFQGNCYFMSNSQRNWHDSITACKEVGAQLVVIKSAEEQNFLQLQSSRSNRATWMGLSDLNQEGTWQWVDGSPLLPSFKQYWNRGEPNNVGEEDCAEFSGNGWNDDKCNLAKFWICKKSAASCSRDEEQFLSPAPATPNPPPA
Method: (§1) 1H-15N HSQC NMR. 1H-15N HSQC NMR spectra were collected with 256 increments in the nitrogen and 24 scans per increment and 2048 points in the direct dimension. The relaxation delay d1 was set to 1.0 s. The W5 WATERGATE pulse sequence was used for solvent suppression.3, 4 Experiments were performed at a CRD concentration of 200 μM in 20 mM MES, 40 mM NaCl, 10 mM CaCl2 (pH 6.0) supplemented with 10% D 2O and, if applicable, varying concentrations of ligands. Samples of apo DC -SIGN CRD were prepared as described for 1H-13C HSQC NMR experiments. A previously published resonance assignment of DC-SIGN CRD was transferred to the nearest neighbor in a reference spectrum recorded without ligand.5 Unassigned, overlapping or disappearing peaks were not assigned.
(§2) CSPs induced by mutations or ligands were calculated as previously described according to […]
(§3) The empirical weighing factor a was set to 0.15 for all calculations.
(§4) Dissociation constants (K Ds) were determined in titration experiments at five ligand concentratio ns […]
(§5) in the fast exchange regime were used for the fitting procedure via equation 4 in a global two - […]
(§6) with CSP max corresponding to the CSP values upon saturation and the bound protein fraction p b […]
(§7) CHESPA was performed as previously described .7 The chemical shift vector between apo and holo wildtype DC -SIGN CRD was used as reference perturbation to calculate the vector product to […]

[2] = target: T2, DC-SIGN CRD wildtype (Homo sapiens, UniProt Q9NNX6)
T2 construct: acids 253-404 of DC-SIGN; His-tag (N); made in house
T2 sequence (Q9NNX6 253-404): T1 sequence (Q9NNX6 253-404 F313A) with A61F
Method: as §1, §2, §3, §4, §5, §6, §7

[3] = target: T3, DC-SIGN CRD I376V (Homo sapiens, UniProt Q9NNX6, I376V)
T3 construct: acids 253-404 of DC-SIGN; His-tag (N); made in house
T3 sequence (Q9NNX6 253-404 I376V limits assumed): T1 sequence (Q9NNX6 253-404 F313A) with A61F, I124V
Method: as §1, §2, §3, §4, §5, §6, §7

[4] = target: T4, DC-SIGN CRD M270F (Homo sapiens, UniProt Q9NNX6, M270F)
T4 construct: acids 253-404 of DC-SIGN; His-tag (N); made in house
T4 sequence (Q9NNX6 253-404 M270F): T1 sequence (Q9NNX6 253-404 F313A) with M18F, A61F
Method: as §1, §2, §3, §4, §5, §6, §7

[5] = target: T5, DC-SIGN CRD W364F (Homo sapiens, UniProt Q9NNX6, W364F)
T5 construct: acids 253-404 of DC-SIGN; His-tag (N); made in house
T5 sequence (Q9NNX6 253-404 W364F): T1 sequence (Q9NNX6 253-404 F313A) with A61F, W112F
Method: as §1, §2, §3, §4, §5, §6, §7

[6] = target: T6, DC-SIGN CRD F359L (Homo sapiens, UniProt Q9NNX6, F359L)
T6 construct: acids 253-404 of DC-SIGN; His-tag (N); made in house
T6 sequence (Q9NNX6 253-404 F359L): T1 sequence (Q9NNX6 253-404 F313A) with A61F, F107L
Method: as §1, §2, §3, §4, §5, §6, §7

[7] = target: T7, DC-SIGN CRD T314A (Homo sapiens, UniProt Q9NNX6, T314A)
T7 construct: acids 253-404 of DC-SIGN; His-tag (N); made in house
T7 sequence (Q9NNX6 253-404 T314A): T1 sequence (Q9NNX6 253-404 F313A) with A61F, T62A
Method: as §1, §2, §3, §4, §5, §6, §7

[8] = target: T8, DC-SIGN CRD Q323A (Homo sapiens, UniProt Q9NNX6, Q323A)
T8 construct: acids 253-404 of DC-SIGN; His-tag (N); made in house
T8 sequence (Q9NNX6 253-404 Q323A limits assumed): T1 sequence (Q9NNX6 253-404 F313A) with A61F, Q71A
Method: as §1, §2, §3, §4, §5, §6, §7

[9] = target: T9, DC-SIGN CRD E358A (Homo sapiens, UniProt Q9NNX6, E358A)
T9 construct: acids 253-404 of DC-SIGN; His-tag (N); made in house
T9 sequence (Q9NNX6 253-404 E358A): T1 sequence (Q9NNX6 253-404 F313A) with A61F, E106A
Method: as §1, §2, §3, §4, §5, §6, §7

- Kd [1]: 6 ± 0.5 mM
- Kd [2]: 3.3 ± 0.3 mM
- Kd [3]: 3.4 ± 0.2 mM
- Kd [4]: 2.9 ± 0.4 mM
- Kd [5]: 5 ± 0.9 mM
- Kd [6]: 8.2 ± 0.8 mM
- Kd [7]: 3.9 ± 0.1 mM
- Kd [8]: 3.5 ± 0.2 mM
- Kd [9]: 51.1 ± 4.9 mM
SMILES: OC[C@H]1OC(O)[C@@H](O)[C@@H](O)[C@@H]1O (stereo partly drawn) [mannose]
